Entries after “also recorded” stand apart in the source; their conditions may differ. Where two headings read alike, the source gives them in different places.
What was measured:
[1] = Vitamin B6 monitoring (plasma pyridoxal 5'-phosphate) within the clinical study; type: in vivo, human; parameters: Plasma vitamin B6 (pyridoxal 5'-phosphate), Change from baseline, Median / Plasma vitamin B6 (pyridoxal 5'-phosphate), Change from baseline, Mean: unit not given here; settings: for Plasma vitamin B6 (pyridoxal 5'-phosphate), Observed value, Median / Plasma vitamin B6 (pyridoxal 5'-phosphate), Observed value, Mean: no unit in table
Method: Therefore, potential neurotoxicity by NCS assessment and by PLP levels during the conduct of the current study was monitored.
Plasmatic concentration of vitamin B6 was monitored at each visit. The normal range of plasma concentration of vitamin B6 in humans (measured as pyridoxal 5'-phosphate) is […], values below this range are considered 'low' and values above, 'high'. In the inclusion visit at time zero patients were classified as 'normal', 'low' or 'high' and the change of this classification was assessed at each visit.
The fact that most of the patients show no change in the classification as 'normal', 'low', or 'high' during the study is a sign of low neurotoxicity of the product. This is the case for patient showing no shift from baseline, for instance 'Normal to Normal' patients.

beagle dogs = settings: continuous edaravone infusion; cited from earlier work
monkeys = settings: continuous i.v. infusion of 1000 mg/kg/day, 28 days; cited from earlier work
[2] = tested on: patients with Amyotrophic Lateral Sclerosis (ALS); experiment: Clinical assessment of neuropathy in the clinical study of edaravone granules for oral solution; type: in vivo, human
Method: A clinical study was started to investigate the efficacy and safety of 100 mg of edaravone granules for oral solution (composition shown in table 1 above) in 300 patients with Amyotrophic Lateral Sclerosis (ALS) following treatment for 48 or 72 weeks. The first 100 subjects enrolled will have either 72 weeks of follow-up or have reached an intercurrent event, and the rest (about two thirds of enrolled patients) will be followed up to 48 weeks (or have reached an intercurrent event).
During the treatment, the participants are randomly assigned to receive a daily dose of 100 mg of either edaravone (composition shown in table 1 above) or placebo at a ratio of 2:1 (i.e., two thirds of the patients receive the edaravone formulation and one third receives placebo) for 72 weeks. The study medication, both the placebo and edaravone, is available in single-dose sachets, which must be dissolved in water and taken orally once daily in the morning after a lapse of at least 2 hours from the last meal consumption.
Several authors and regulatory agencies (see for instance EMA/CHMP/290284/2019, page 134) consider that monitoring of the levels of pyridoxal 5'-phosphate (PLP), the active form of vitamin B6, and testing of motor or sensory nerve conduction, such as Nerve Conduction Studies (NCS) described below, should be carried out in order to allow for early detection of neurotoxicity. In addition to this, clinical assessment of neuropathy of patients was carried out by neurologist.
Moreover, the percentage of neuropathy found in patients suffering from other chronic diseases such as diabetes, HIV infection or alcoholism is higher than 20 %. When the blinding of the study is broken, the specific percentages of neuropathy could be linked to the edaravone and placebo arms.

[3] = tested on: patients with Amyotrophic Lateral Sclerosis (ALS); experiment: Nerve Conduction Study (NCS) within the clinical study; type: in vivo, human; settings: for Sural-Radial Amp Ratio (SRAR), Shift from Baseline: Low to Low / Sural-Radial Amp Ratio (SRAR), Shift from Baseline: Low to Normal / Sural-Radial Amp Ratio (SRAR), Shift from Baseline: Normal to Low / Sural-Radial Amp Ratio (SRAR), Shift from Baseline: Normal to Normal / Sural nerve - SNAP Amp, Shift from Baseline: Low to Low / Sural nerve - SNAP Amp, Shift from Baseline: Low to Normal / Sural nerve - SNAP Amp, Shift from Baseline: Normal to Low / Sural nerve - SNAP Amp, Shift from Baseline: Normal to Normal: blinded pool edaravone/placebo 2:1
Method: A centralized evaluation was performed by neurophysiologists to avoid any bias between sites and to guarantee the safety of patients. The NCS was initially performed for the first 60 enrolled patients at screening, and on weeks 4, 12, and 24. […] NCS main criteria for neuropathy are decreased sural nerve SNAP (sensory nerve action potential) amplitudes or decreased sural/radial nerve amplitude ratio (SRAR), although all data is assessed globally. […] The fact that most of the patients show no change in these values, i.e., that they start with 'normal' and remain 'normal' is a sign of lack of neurotoxicity of the treatment. The appearance of neuropathy may also occur at the normal population for other causes such as diabetes or alcoholism, totally unrelated to any treatment. The NCS protocol evaluates the sensory nerve action potential (SNAP) amplitudes using standard ring-electrodes and predefined sites for both stimulus (antidromic) and recording sites, including standardized distances that also apply for the inter-electrode distances. […] These measures eliminate any unwanted variation due to instrumentational differences. NCS data is evaluated independently at a single specialized unit taking into account reference values provided by participating sites and using age-adjusted reference values. Recordings can be performed on a standard type of electromyograph (EMG) equipment (e.g., Natus Nicolet EDX, Nicolet Viking, Dantec Keypoint, TECA Synergy, Cadwell). The following steps were followed to perform the NCS assessment: • Recording and documentation of temperature at start of the assessment at hand and foot respectively. Limb temperature should be ≥ 31°C, otherwise warming may be considered or alternatively accepted correction factor for decreased temperature could be done. • Unilateral recording of sensory responses of the following nerves (hand, followed by lower limb) was carried out: • ∘ Median nerve (hand, dig II). The distance from the stimulus and recording electrode should be recorded. • ∘ Ulnar nerve (hand, dig V). The distance from the stimulus and recording electrode should be recorded. • ∘ Radial nerve (back of the hand). A standardized distance stimulus-recording electrode of 12 cm should be used. • ∘ Sural nerve (leg, lateral malleolus). A standardized distance stimulus-recording electrode of 12 cm should be used. • Recording of sensory responses were carried out using standardized sides (left or right) for stimulation (assessments were performed on one side only, the same side for each subject was used throughout the study). Electrodes were placed at an interelectrode distance of 2 cm. […] For each nerve, sensory nerve action potential (SNAP) amplitudes were evaluated. Antidromic stimulus were provided to the subjects. Required quality of the NCS included: optimization of the recordings, ensuring flat base line without a slope, omitting stimulus artifacts and background noise, so that markers could be placed appropriately, and true SNAP amplitude values could be obtained accurately. The NCS Ranges of normality considered for this clinical study for SNAP Amp (sensory nerve action potential amplitude) and SCV (sensory conduction velocity) are shown below: Table 4 Normal values for the sensory nerve action potential amplitude (SNAP Amp) for the sural nerve are values higher than 8 µV for subjects with less than 40 years of age, higher than 5 µV for subjects with 40-60 years of age, and higher than 2 µV for subjects with more than 60 years of age. Normal values for the sural-radial Amp ratio (SRAR) are values higher than 0.45 for subjects with 18-39 years, higher than 0.32 for subjects with 40-59 years and higher than 0.19 for subjects with 60 or more years of age.

dogs [4] = settings: continuous i.v. infusion, cited from earlier work
dogs [5] = settings: cited from earlier work
[6] = Visit 1 (Baseline, before treatment), N=163
[7] = Visit 2 (Week 4), N=159, blinded pool edaravone/placebo 2:1
[8] = Visit 3 (Week 12), n=109, blinded pool edaravone/placebo 2:1
[9] = Visit 4 (Week 24), n=59, blinded pool edaravone/placebo 2:1
[10] = Visit 5 (Week 36), n=12, blinded pool edaravone/placebo 2:1

CC1=NN(c2ccccc2)C(=O)C1 [edaravone, 5-methyl-2-phenyl-4H-pyrazol-3-one]
Plasma vitamin B6 (pyridoxal 5'-phosphate), Observed value, Median ([1]; Screening (before treatment), n=182): 41.50 | Plasma vitamin B6 (pyridoxal 5'-phosphate), Observed value, Mean ([1]; Screening (before treatment), n=182, normal range 12-128 ng/L): 74.90 | Plasma vitamin B6 (pyridoxal 5'-phosphate), Observed value, Mean [1, 6]: 76.6 | Plasma vitamin B6 (pyridoxal 5'-phosphate), Observed value, Median [1, 6]: 41.0 | Plasma vitamin B6 (pyridoxal 5'-phosphate), Change from baseline, Mean [1, 7]: 0.5 | Plasma vitamin B6 (pyridoxal 5'-phosphate), Change from baseline, Median [1, 7]: 2.0 | Plasma vitamin B6 (pyridoxal 5'-phosphate), Observed value, Mean [1, 7]: 77.10 | Plasma vitamin B6 (pyridoxal 5'-phosphate), Observed value, Median [1, 7]: 43.0 | Plasma vitamin B6 (pyridoxal 5'-phosphate), Change from baseline, Mean [1, 8]: -6.8 | Plasma vitamin B6 (pyridoxal 5'-phosphate), Change from baseline, Median [1, 8]: 2.0 | Plasma vitamin B6 (pyridoxal 5'-phosphate), Observed value, Mean [1, 8]: 69.80 | Plasma vitamin B6 (pyridoxal 5'-phosphate), Observed value, Median [1, 8]: 43.0 | Plasma vitamin B6 (pyridoxal 5'-phosphate), Change from baseline, Mean [1, 9]: -0.7 | Plasma vitamin B6 (pyridoxal 5'-phosphate), Change from baseline, Median [1, 9]: 4.0 | Plasma vitamin B6 (pyridoxal 5'-phosphate), Observed value, Mean [1, 9]: 75.9 | Plasma vitamin B6 (pyridoxal 5'-phosphate), Observed value, Median [1, 9]: 45.0 | Plasma vitamin B6 (pyridoxal 5'-phosphate), Change from baseline, Mean [1, 10]: 19.2 | Plasma vitamin B6 (pyridoxal 5'-phosphate), Change from baseline, Median [1, 10]: 33.5 | Plasma vitamin B6 (pyridoxal 5'-phosphate), Observed value, Mean [1, 10]: 95.8 | Plasma vitamin B6 (pyridoxal 5'-phosphate), Observed value, Median [1, 10]: 74.5 | plasmatic concentration of vitamin B6 versus baseline ([1]; monitored at each visit): do not show a decrease; also recorded: not reduced from baseline | plasma levels of vitamin B6 (beagle dogs): decreasing plasma levels of vitamin B6 | histological correlate in the central and peripheral nervous system (monkeys): minimal to severe nerve fibre degenerations | motor deficits, time of appearance (monkeys): third and fourth week | patients showing clinical signs of neuropathy ([2]; 313 randomized patients, blinded pool edaravone/placebo 2:1, 100 mg oral once daily, treated 6 months to one year and 7 months): 2.2% | percentage of neuropathy in patients compared with normal population ([2]; clinical trial with edaravone, normal population about 8 %): not higher than the percentage found in the normal population | number of patients showing clinical signs of neuropathy ([2]; out of 313 randomized patients, blinded pool edaravone/placebo 2:1, treated 6 months to one year and 7 months): 7 | Sural-Radial Amp Ratio (SRAR), Shift from Baseline: Low to Low ([3]; Visit 2 (Week 4), N=165): 9 (5.5) n (%) | Sural-Radial Amp Ratio (SRAR), Shift from Baseline: Low to Normal ([3]; Visit 2 (Week 4), N=165): 8 (4.8) n (%) | Sural-Radial Amp Ratio (SRAR), Shift from Baseline: Normal to Low ([3]; Visit 2 (Week 4), N=165): 6 (3.6) n (%) | Sural-Radial Amp Ratio (SRAR), Shift from Baseline: Normal to Normal ([3]; Visit 2 (Week 4), N=165): 142 (86.1) n (%) | Sural nerve - SNAP Amp, Shift from Baseline: Low to Low ([3]; Visit 2 (Week 4), N=167): 3 (1.8) n (%) | Sural nerve - SNAP Amp, Shift from Baseline: Low to Normal ([3]; Visit 2 (Week 4), N=167): 0 (0.0) n (%) | Sural nerve - SNAP Amp, Shift from Baseline: Normal to Low ([3]; Visit 2 (Week 4), N=167): 2 (1.2) n (%) | Sural nerve - SNAP Amp, Shift from Baseline: Normal to Normal ([3]; Visit 2 (Week 4), N=167): 162 (97.0) n (%) | Sural-Radial Amp Ratio (SRAR), Shift from Baseline: Low to Low ([3]; Visit 3 (Week 12), N=112): 5 (4.5) n (%) | Sural-Radial Amp Ratio (SRAR), Shift from Baseline: Low to Normal ([3]; Visit 3 (Week 12), N=112): 4 (3.6) n (%) | Sural-Radial Amp Ratio (SRAR), Shift from Baseline: Normal to Low ([3]; Visit 3 (Week 12), N=112): 10 (8.9) n (%) | Sural-Radial Amp Ratio (SRAR), Shift from Baseline: Normal to Normal ([3]; Visit 3 (Week 12), N=112): 93 (83.0) n (%) | Sural nerve - SNAP Amp, Shift from Baseline: Low to Low ([3]; Visit 3 (Week 12), N=115): 2 (1.7) n (%) | Sural nerve - SNAP Amp, Shift from Baseline: Low to Normal ([3]; Visit 3 (Week 12), N=115): 0 (0.0) n (%) | Sural nerve - SNAP Amp, Shift from Baseline: Normal to Low ([3]; Visit 3 (Week 12), N=115): 3 (2.6) n (%) | Sural nerve - SNAP Amp, Shift from Baseline: Normal to Normal ([3]; Visit 3 (Week 12), N=115): 110 (95.7) n (%) | Sural-Radial Amp Ratio (SRAR), Shift from Baseline: Low to Low ([3]; Visit 4 (Week 24), N=59): 4 (6.8) n (%) | Sural-Radial Amp Ratio (SRAR), Shift from Baseline: Low to Normal ([3]; Visit 4 (Week 24), N=59): 1 (1.7) n (%) | Sural-Radial Amp Ratio (SRAR), Shift from Baseline: Normal to Low ([3]; Visit 4 (Week 24), N=59): 4 (6.8) n (%) | Sural-Radial Amp Ratio (SRAR), Shift from Baseline: Normal to Normal ([3]; Visit 4 (Week 24), N=59): 50 (84.7) n (%) | Sural nerve - SNAP Amp, Shift from Baseline: Low to Low ([3]; Visit 4 (Week 24), N=60): 0 (0.0) n (%) | Sural nerve - SNAP Amp, Shift from Baseline: Low to Normal ([3]; Visit 4 (Week 24), N=60): 0 (0.0) n (%) | Sural nerve - SNAP Amp, Shift from Baseline: Normal to Low ([3]; Visit 4 (Week 24), N=60): 3 (5.0) n (%) | Sural nerve - SNAP Amp, Shift from Baseline: Normal to Normal ([3]; Visit 4 (Week 24), N=60): 57 (95.0) n (%) | main criteria for neuropathy: decreased sural nerve SNAP amplitudes or decreased sural/radial nerve amplitude ratio (SRAR) ([3]; at baseline and at different times during the study): not found in most of the patients | onset of dose-dependent impaired motor function (dogs [4]; 300 mg/kg/day): 13 days | onset of dose-dependent impaired motor function (dogs [4]; ≥60 mg/kg/day): 18 days of treatment | finding associated with the loss of motor function (dogs [4]): axonal degeneration of peripheral nerves fibres and in the CNS | levels of pyridoxal 5'-phosphate (PLP) (dogs [5]; continuous i.v. infusions of 1000 mg/kg/day): reduced | onset of the axonal nerve fibre degenerations (dogs [5]; continuously infused i.v. dose 120 mg/kg/day): 15 days | onset of the axonal nerve fibre degenerations (dogs [5]; continuously infused i.v. dose 300 mg/kg/day): 11 days
